Assays:
Test in all cases: biochemical
[1] = target: T1, HCV NS3/4A protease D168A variant (Hepatitis C virus genotype 1a, UniProt P27958, C1185S/D1194A); assay type: biochemical
T1 construct: His-tag (cleaved yes); made in house; host or cells: Escherichia coli BL21(DE3), PET28a vector
Method: (§1) The HCV GT1a NS3/4A protease gene described in the Bristol Myers Squibb patent was synthesized by GenScript and cloned into a PET28a expression vector. Cys159 was mutated to a serine residue to prevent disulfide bond formation and facilitate crystallization. The D168A gene was engineered using the site-directed mutagenesis protocol from Stratagene. Protein expression and purification were carried out as previously described.
(§2) Km constants for GT1 and D168A protease were previously determined. […] Inner filter effect corrections were applied to the initial velocities (Vo) at each substrate concentration. Vo versus substrate concentration graphs were globally fit to the Michaelis-Menten equation to obtain the Km value.
(§3) For each assay, 2 nM of NS3/4A protease (GT1a and D168A) was pre-incubated at room temperature for 1 h with increasing concentration of inhibitors in assay buffer (50 mM Tris, 5% glycerol, 10 mM DTT, 0.6 mM LDAO, and 4% dimethyl sulfoxide, pH 7.5). Inhibition assays were performed in non-binding surface 96-well black half-area plates (Corning) in a reaction volume of 60 μL. […] Three independent data sets were collected for each inhibitor with each protease construct.

[2] = tested on: HCV NS3/4A protease D168A variant; assay type: biochemical, Hepatitis C virus; settings: for Fold Change of D168A Ki with respect to GT1a wild-type: Table S1, value in parentheses
Method: as §1, §2, §3

[3] = target: T2, wild-type HCV NS3/4A protease (GT1a) (Hepatitis C virus genotype 1a, UniProt P27958, C1185S); assay type: biochemical
T2 construct: His-tag (cleaved yes); made in house; host or cells: Escherichia coli BL21(DE3), PET28a vector
Method: as §1, §2, §3

T1 sequence (P27958 1027-1208 C1185S/D1194A): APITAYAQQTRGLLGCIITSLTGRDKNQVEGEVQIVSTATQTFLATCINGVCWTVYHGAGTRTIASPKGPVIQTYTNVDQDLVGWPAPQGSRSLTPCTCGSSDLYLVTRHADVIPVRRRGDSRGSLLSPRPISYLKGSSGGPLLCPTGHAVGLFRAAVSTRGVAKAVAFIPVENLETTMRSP
T2 sequence (P27958 1027-1208 C1185S): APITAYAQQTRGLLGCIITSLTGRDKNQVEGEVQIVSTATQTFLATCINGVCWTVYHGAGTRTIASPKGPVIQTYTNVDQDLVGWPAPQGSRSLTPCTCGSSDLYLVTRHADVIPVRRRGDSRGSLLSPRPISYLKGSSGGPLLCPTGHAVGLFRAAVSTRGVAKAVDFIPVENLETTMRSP

With `COc1ccc2nc(C)c(O[C@@H]3C[C@H]4C(=O)N[C@]5(C(=O)NS(=O)(=O)C6(C)CC6)C[C@H]5/C=C\CCCCC[C@H](NC(=O)[C@@H](NC(C)=O)C(C)C)C(=O)N4C3)nc2c1` [Inhibitor P4P5-1A, (2R,6S,13aS,14aR,16aS,Z)-6-((S)-2-Acetamido-3-methylbutanamido)-2-((7-methoxy-3-methylquinoxalin-2-yl)oxy)-N-((1-methylcyclopropyl)sulfonyl)-5,16-dioxo-1,2,3,6,7,8,9,10,11,13a,14,15,16,16a-tetradecahydrocyclopropa[e]pyrrolo[1,2-a][1,4]diazacyclopentadecine-14a(5H)-carboxamide] the Ki [1] was 141 ± 18 nM, the “Fold Change of D168A Ki with respect to GT1a wild-type” value (shortened to “Fold Change of D168A Ki”) [2] was “(13) fold” and the Ki [3] was 11.1 ± 0.5 nM.

`COC(=O)N[C@H](C(=O)N[C@H]1CCCCC/C=C\[C@@H]2C[C@@]2(C(=O)NS(=O)(=O)C2(C)CC2)NC(=O)[C@@H]2C[C@@H](Oc3nc4cc(OC)ccc4nc3C)CN2C1=O)C(C)C` [Inhibitor P4P5-1B, Methyl ((S)-1-(((2R,6S,13aS,14aR,16aS,Z)-2-((7-methoxy-3-methylquinoxalin-2-yl)oxy)-14a-(((1-methylcyclopropyl)sulfonyl)carbamoyl)-5,16-dioxo-1,2,3,5,6,7,8,9,10,11,13a,14,14a,15,16,16a-hexadecahydrocyclopropa[e]pyrrolo[1,2-a][1,4]diazacyclopentadecin-6-yl)amino)-3-methyl-1-oxobutan-2-yl)carbamate] was tested, and the Ki [1] was 102 ± 6.8 nM, the “Fold Change of D168A Ki” value [2] was “(8) fold” and the Ki [3] was 13 ± 0.8 nM.

For `COc1ccc2nc(C)c(O[C@@H]3C[C@H]4C(=O)N[C@]5(C(=O)NS(=O)(=O)C6(C)CC6)C[C@H]5/C=C\CCCCC[C@H](NC(=O)[C@@H](NC(C)=O)C(C)(C)C)C(=O)N4C3)nc2c1` [Inhibitor P4P5-2A, (2R,6S,13aS,14aR,16aS,Z)-6-((S)-2-Acetamido-3,3-dimethylbutanamido)-2-((7-methoxy-3-methylquinoxalin-2-yl)oxy)-N-((1-methylcyclopropyl)sulfonyl)-5,16-dioxo-1,2,3,6,7,8,9,10,11,13a,14,15,16,16a-tetradecahydrocyclopropa[e]pyrrolo[1,2-a][1,4]diazacyclopentadecine-14a(5H)-carboxamide], the Ki [1] was 215 ± 16 nM, the “Fold Change of D168A Ki” value [2] was “(9) fold” and the Ki [3] was 23.9 ± 1.7 nM.

`COC(=O)N[C@H](C(=O)N[C@H]1CCCCC/C=C\[C@@H]2C[C@@]2(C(=O)NS(=O)(=O)C2(C)CC2)NC(=O)[C@@H]2C[C@@H](Oc3nc4cc(OC)ccc4nc3C)CN2C1=O)C(C)(C)C` [Inhibitor P4P5-2B, Methyl ((S)-1-(((2R,6S,13aS,14aR,16aS,Z)-2-((7-methoxy-3-methylquinoxalin-2-yl)oxy)-14a-(((1-methylcyclopropyl)sulfonyl)carbamoyl)-5,16-dioxo-1,2,3,5,6,7,8,9,10,11,13a,14,14a,15,16,16a-hexadecahydrocyclopropa[e]pyrrolo[1,2-a][1,4]diazacyclopentadecin-6-yl)amino)-3,3-dimethyl-1-oxobutan-2-yl)carbamate] was tested, and the Ki [1] was 201 ± 15 nM, the “Fold Change of D168A Ki” value [2] was “(8) fold” and the Ki [3] was 29.5 ± 1.9 nM.

For `COc1ccc2nc(C)c(O[C@@H]3C[C@H]4C(=O)N[C@]5(C(=O)NS(=O)(=O)C6(C)CC6)C[C@H]5/C=C\CCCCC[C@H](NC(=O)[C@@H](NC(C)=O)C5CCCC5)C(=O)N4C3)nc2c1` [Inhibitor P4P5-3A, (2R,6S,13aS,14aR,16aS, Z)-6-((S)-2-acetamido-2-cyclopentylacetamido)-2-((7-methoxy-3-methylquinoxalin-2-yl)oxy)-N-((1-methylcyclopropyl)sulfonyl)-5,16-dioxo-1,2,3,6,7,8,9,10,11,13a,14,15,16,16a-tetradecahydrocyclopropa[e]pyrrolo[1,2-a][1,4]diazacyclopentadecine-14a(5H)-carboxamide], the Ki [1] was 87.3 nM, the “Fold Change of D168A Ki” value [2] was “(39) fold” and the “fold less potent than the methyl carbamate analog P4P5-3B” value ([2]; acetamide (3A) vs methyl carbamate (3B)) was roughly 3 fold. It also gave a Ki [3] of 2.23 ± 0.07 nM.

For `COC(=O)N[C@H](C(=O)N[C@H]1CCCCC/C=C\[C@@H]2C[C@@]2(C(=O)NS(=O)(=O)C2(C)CC2)NC(=O)[C@@H]2C[C@@H](Oc3nc4cc(OC)ccc4nc3C)CN2C1=O)C1CCCC1` [Inhibitor P4P5-3B, Methyl ((S)-1-cyclopentyl-2-(((2R,6S,13aS,14aR,16aS,Z)-2-((7-methoxy-3-methylquinoxalin-2-yl)oxy)-14a-(((1-methylcyclopropyl)sulfonyl)carbamoyl)-5,16-dioxo-1,2,3,5,6,7,8,9,10,11,13a,14,14a,15,16,16a-hexadecahydrocyclopropa[e]pyrrolo[1,2-a][1,4]diazacyclopentadecin-6-yl)amino)-2-oxoethyl)carbamate], the Ki [1] was 31.6 ± 2.1 nM, the “Fold Change of D168A Ki” value [2] was “(9) fold” and the Ki [3] was 3.54 ± 0.13 nM.

In the case of `CC[C@H](C)[C@H](NC(C)=O)C(=O)N[C@H]1CCCCC/C=C\[C@@H]2C[C@@]2(C(=O)NS(=O)(=O)C2(C)CC2)NC(=O)[C@@H]2C[C@@H](Oc3nc4cc(OC)ccc4nc3C)CN2C1=O` [Inhibitor P4P5-4, (2R,6S,13aS,14aR,16aS,Z)-6-((2S,3S)-2-acetamido-3-methylpentanamido)-2-((7-methoxy-3-methylquinoxalin-2-yl)oxy)-N-((1-methylcyclopropyl)sulfonyl)-5,16-dioxo-1,2,3,6,7,8,9,10,11,13a,14,15,16,16a-tetradecahydrocyclopropa[e]pyrrolo[1,2-a][1,4]diazacyclopentadecine-t4a(5H)-carboxamide], the Ki [1] is reported as 81 nM, the “Fold Change of D168A Ki” value [2] is reported as “(11) fold” and the Ki [3] is reported as 7.1 ± 0.24 nM.

With `COC(=O)NC1(C(=O)N[C@H]2CCCCC/C=C\[C@@H]3C[C@@]3(C(=O)NS(=O)(=O)C3(C)CC3)NC(=O)[C@@H]3C[C@@H](Oc4nc5cc(OC)ccc5nc4C)CN3C2=O)CCCC1` [Inhibitor P4P5-5, Methyl (1-(((2R,6S,13aS,14aR,16aS,Z)-2-((7-methoxy-3-methylquinoxalin-2-yl)oxy)-14a-(((1-methylcyclopropyl)sulfonyl)carbamoyl)-5,16-dioxo-1,2,3,5,6,7,8,9,10,11,13a,14,14a,15,16,16a-hexadecahydrocyclopropa[e]pyrrolo[1,2-a][1,4]diazacyclopentadecin-6-yl)carbamoyl)cyclopentyl)carbamate] the Ki [1] was 931 ± 70 nM, the “fold loss in potency against D168A relative to WT” value [2] was 30 fold and the “Fold Change of D168A Ki” value [2] was “(30) fold”. For the same compound, the Ki [3] was 31 ± 2.74 nM.

For `COC(=O)N[C@H](C(=O)N[C@H]1CCCCC/C=C\[C@@H]2C[C@@]2(C(=O)NS(=O)(=O)C2(C)CC2)NC(=O)[C@@H]2C[C@@H](Oc3nc4cc(OC)ccc4nc3C)CN2C1=O)C1CCCCC1` [Inhibitor P4P5-6, Methyl ((S)-1-cyclohexyl-2-(((2R,6S,13aS,14aR,16aS,Z)-2-((7-methoxy-3-methylquinoxalin-2-yl)oxy)-14a-(((1-methylcyclopropyl)sulfonyl)carbamoyl)-5,16-dioxo-1,2,3,5,6,7,8,9,10,11,13a,14,14a,15,16,16a-hexadecahydrocyclopropa[e]pyrrolo[1,2-a][1,4]diazacyclopentadecin-6-yl)amino)-2-oxoethyl)carbamate], the Ki [1] was 9.68 ± 0.64 nM, the “fold more potent than grazoprevir towards D168A” value ([1]; compared to grazoprevir) was 5 fold and the “Fold Change of D168A Ki” value [2] was “(11) fold”. It also gave a Ki [3] of 0.91 ± 0.38 nM.

`CCC1(OC(=O)N[C@H]2CCCCC/C=C\[C@@H]3C[C@@]3(C(=O)NS(=O)(=O)C3(C)CC3)NC(=O)[C@@H]3C[C@@H](Oc4nc5cc(OC)ccc5nc4C)CN3C2=O)CCCC1` [NR01-97, 1-Ethylcyclopentyl ((2R,6S,13aS,14aR,16aS, Z)-2-((7-methoxy-3-methylquinoxalin-2-yl)oxy)-14a-(((1-methylcyclopropyl)sulfonyl)carbamoyl)-5,16-dioxo-1,2,3,5,6,7,8,9,10,11,13a,14,14a,15,16,16a-hexadecahydrocyclopropa[e]pyrrolo[1,2-a][1,4]diazacyclopentadecin-6-yl) carbamate] was tested, and the Ki [1] was 21.7 ± 2.3 nM, the “fold increase in potency against D168A compared to the parent compound” value ([1]; compared to parent compound) was roughly 3 fold and the “Fold Change of D168A Ki” value [2] was “(17) fold”. The Ki [3] was 1.29 ± 0.05 nM.

With `CCC(CC)OC(=O)N[C@H]1CCCCC/C=C\[C@@H]2C[C@@]2(C(=O)NS(=O)(=O)C2(C)CC2)NC(=O)[C@@H]2C[C@@H](Oc3nc4cc(OC)ccc4nc3C(F)(F)F)CN2C1=O` [NR02-52, Pentan-3-yl ((2R,6S,13aS,14aR,16aS,Z)-2-((7-methoxy-3-(trifluoromethyl)quinoxalin-2-yl)oxy)-14a-(((1-methylcyclopropyl)sulfonyl)carbamoyl)-5,16-dioxo-1,2,3,5,6,7,8,9,10,11,13a,14,14a,15,16,16a-hexadecahydrocyclopropa[e]pyrrolo[1,2-a][1,4]diazacyclopentadecin-6-yl)carbamate] the Ki [1] was 20.9 ± 2.1 nM and the Ki [3] was 4.6 ± 0.66 nM.

— US12441762B2, “Hepatitis c virus NS3/4A protease inhibitors” (priority 2019, dated 2025)
